PubChem BioAssay AID248 (DTP/NCI, 2004)
Several values for one entry are separate records, joined by “and”; a condition that tells them apart may be missing. Identical values can stand only once. Toxic doses and inconclusive results are not listed. Rule as the data show it: active = T/C of 150% or more; inactive = T/C below 125%.

System: L1210 leukemia ip in BDF1 mice, survival T/C
Assay: NCI In Vivo Anticancer Drug Screen. Data for tumor model L1210 Leukemia (intraperitoneal) in B6D2F1 (BDF1) mice
Conditions: endpoint: mean survival time, higher = longer survival
Summary of the method: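 Ratio derived from survival: compound-dosed mice over vehicle-dosed mice, all bearing a transplantable tumor.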

[1] = dose: 12.5 mg/kg/injection, schedule: Q04DX003 (ip), vehicle: saline
[2] = dose: 25.0 mg/kg/injection, schedule: Q01DX009 (ip), vehicle: Klucel (hydroxypropylcellulose) (HPC)
[3] = dose: 50.0 mg/kg/injection, schedule: Q01DX009 (ip), vehicle: Klucel (hydroxypropylcellulose) (HPC)
[4] = dose: 100.0 mg/kg/injection, schedule: Q01DX009 (ip), vehicle: Klucel (hydroxypropylcellulose) (HPC)
[5] = dose: 100.0 mg/kg/injection, schedule: Q04DX003 (ip), vehicle: Klucel (hydroxypropylcellulose) (HPC)
[6] = dose: 200.0 mg/kg/injection, schedule: Q01DX009 (ip), vehicle: Klucel (hydroxypropylcellulose) (HPC)
[7] = dose: 400.0 mg/kg/injection, schedule: Q01DX009 (ip), vehicle: Klucel (hydroxypropylcellulose) (HPC)
[8] = dose: 100.0 mg/kg/injection, schedule: Q04DX002 (ip), vehicle: saline
[9] = dose: 200.0 mg/kg/injection, schedule: Q04DX002 (ip), vehicle: saline

Measured: T/C

C=CCOC(=O)Nc1cccc(OC(=O)NC)c1
inactive: dose: 100.0 mg/kg/injection, schedule: Q04DX003 (ip), vehicle: saline with Tween-80 105 % of control | dose: 200.0 mg/kg/injection, schedule: Q04DX003 (ip), vehicle: saline with Tween-80 105 % of control | dose: 400.0 mg/kg/injection, schedule: Q04DX003 (ip), vehicle: saline with Tween-80 100 % of control

Cc1c2cnccc2c(C)c2c1c1ccccc1n2CCN(C)C
inactive: [1] 105 % of control | dose: 25.0 mg/kg/injection, schedule: Q04DX003 (ip), vehicle: saline 97 % of control | dose: 50.0 mg/kg/injection, schedule: Q04DX003 (ip), vehicle: saline 102 % of control | dose: 300.0 mg/kg/injection, schedule: Q04DX003 (ip), vehicle: saline 113 % of control

C[C@]12CCC(=O)C=C1CC[C@@H]1[C@@H]2CC[C@@]2(C)[C@H]1CC[C@]2(C)O
inactive: dose: 100.0 mg/kg/injection, schedule: Q04DX003 (sc), vehicle: steriod suspending solution 95 % of control | dose: 200.0 mg/kg/injection, schedule: Q04DX003 (sc), vehicle: steriod suspending solution 102 % of control | dose: 400.0 mg/kg/injection, schedule: Q04DX003 (sc), vehicle: steriod suspending solution 97 % of control

c1ccc2snnc2c1
inactive: dose: 20.0 mg/kg/injection, schedule: Q01DX001 (ip), vehicle: saline 102 % of control | dose: 40.0 mg/kg/injection, schedule: Q01DX001 (ip), vehicle: saline 104 % of control | dose: 80.0 mg/kg/injection, schedule: Q01DX001 (ip), vehicle: saline 98 % of control

FC(F)(F)c1ccc2c(c1)N(CCCN1CCN(CCC3OCCCO3)CC1)c1ccccc1S2
inactive: dose: 0.78 mg/kg/injection, schedule: Q04DX003 (ip), vehicle: saline 102 % of control | dose: 1.56 mg/kg/injection, schedule: Q04DX003 (ip), vehicle: saline 101 % of control | dose: 3.12 mg/kg/injection, schedule: Q04DX003 (ip), vehicle: saline 102 % of control | dose: 6.25 mg/kg/injection, schedule: Q04DX003 (ip), vehicle: saline 96 % of control | [1] 112 % of control

COc1ccc(OCC(=O)N2CCCCCC2)cc1
inactive: dose: 50.0 mg/kg/injection, schedule: Q01DX001 (ip), vehicle: carboxymethylcellulose (CMC) 100 % of control | dose: 50.0 mg/kg/injection, schedule: Q01DX009 (ip), vehicle: carboxymethylcellulose (CMC) 94 % of control | dose: 50.0 mg/kg/injection, schedule: Q04DX003 (ip), vehicle: carboxymethylcellulose (CMC) 103 % of control | dose: 100.0 mg/kg/injection, schedule: Q01DX001 (ip), vehicle: carboxymethylcellulose (CMC) 106 % of control | dose: 100.0 mg/kg/injection, schedule: Q01DX009 (ip), vehicle: carboxymethylcellulose (CMC) 94 % of control and 96 % of control | dose: 100.0 mg/kg/injection, schedule: Q04DX002 (ip), vehicle: carboxymethylcellulose (CMC) 91 % of control | dose: 100.0 mg/kg/injection, schedule: Q04DX003 (ip), vehicle: carboxymethylcellulose (CMC) 100 % of control | dose: 200.0 mg/kg/injection, schedule: Q01DX001 (ip), vehicle: carboxymethylcellulose (CMC) 109 % of control | dose: 200.0 mg/kg/injection, schedule: Q01DX009 (ip), vehicle: carboxymethylcellulose (CMC) 97 % of control and 100 % of control | dose: 200.0 mg/kg/injection, schedule: Q04DX002 (ip), vehicle: carboxymethylcellulose (CMC) 105 % of control | dose: 200.0 mg/kg/injection, schedule: Q04DX003 (ip), vehicle: carboxymethylcellulose (CMC) 102 % of control | dose: 400.0 mg/kg/injection, schedule: Q04DX002 (ip), vehicle: carboxymethylcellulose (CMC) 96 % of control

O=[N+]([O-])c1cc([N+](=O)[O-])c(NN(c2ccc(Cl)cc2)c2ccc(Cl)cc2)c([N+](=O)[O-])c1
inactive: [2] 96 % of control | [3] 105 % of control | [4] 98 % of control | [5] 98 % of control | dose: 200.0 mg/kg/injection, schedule: Q04DX003 (ip), vehicle: Klucel (hydroxypropylcellulose) (HPC) 96 % of control | dose: 400.0 mg/kg/injection, schedule: Q04DX003 (ip), vehicle: Klucel (hydroxypropylcellulose) (HPC) 96 % of control

CC(C)(CNC1=NCCO1)NC1=NCCO1
inactive: dose: 50.0 mg/kg/injection, schedule: Q01DX009 (ip), vehicle: saline 105 % of control | dose: 100.0 mg/kg/injection, schedule: Q01DX009 (ip), vehicle: saline 107 % of control | dose: 200.0 mg/kg/injection, schedule: Q01DX009 (ip), vehicle: saline 103 % of control

CC(C)n1cnc2nc[nH]c2c1=S
inactive: dose: 25.0 mg/kg/injection, schedule: Q01DX001 (ip), vehicle: Klucel (hydroxypropylcellulose) (HPC) 91 % of control | dose: 25.0 mg/kg/injection, schedule: Q04DX003 (ip), vehicle: Klucel (hydroxypropylcellulose) (HPC) 95 % of control | dose: 50.0 mg/kg/injection, schedule: Q01DX001 (ip), vehicle: Klucel (hydroxypropylcellulose) (HPC) 95 % of control | dose: 50.0 mg/kg/injection, schedule: Q04DX003 (ip), vehicle: Klucel (hydroxypropylcellulose) (HPC) 102 % of control | dose: 100.0 mg/kg/injection, schedule: Q01DX001 (ip), vehicle: Klucel (hydroxypropylcellulose) (HPC) 98 % of control | [5] 92 % of control

O=C(OCC(Cl)(Cl)Cl)c1ccc(Cl)cc1
inactive: dose: 100.0 mg/kg/injection, schedule: Q04DX002 (ip), vehicle: other 97 % of control | dose: 200.0 mg/kg/injection, schedule: Q04DX002 (ip), vehicle: other 97 % of control | dose: 400.0 mg/kg/injection, schedule: Q04DX002 (ip), vehicle: other 97 % of control

O=C(COc1ccccc1)N/N=C/c1cccc([N+](=O)[O-])c1
inactive: dose: 25.0 mg/kg/injection, schedule: Q01DX009 (ip), vehicle: saline with Tween-80 92 % of control | dose: 50.0 mg/kg/injection, schedule: Q01DX009 (ip), vehicle: saline with Tween-80 86 % of control | dose: 100.0 mg/kg/injection, schedule: Q01DX009 (ip), vehicle: saline with Tween-80 86 % of control

Cc1cc(OC(=O)Nc2cc(C(F)(F)F)ccc2Cl)cc(C)c1Cl
inactive: [4] 91 % of control | [6] 104 % of control | [7] 93 % of control

CCC(=O)OCNC(=O)NCc1ccco1
inactive: dose: 222.0 mg/kg/injection, schedule: Q01DX Z (ip), vehicle: methylcellulose (MC) 103 % of control | dose: 333.0 mg/kg/injection, schedule: Q01DX Z (ip), vehicle: methylcellulose (MC) 105 % of control | dose: 500.0 mg/kg/injection, schedule: Q01DX Z (ip), vehicle: methylcellulose (MC) 94 % of control

COC1(OC)CC2C(=O)CCCC21OC (stereo not drawn)
inactive: dose: 100.0 mg/kg/injection, schedule: Q04DX002 (ip), vehicle: saline with Tween-80 100 % of control | dose: 200.0 mg/kg/injection, schedule: Q04DX002 (ip), vehicle: saline with Tween-80 93 % of control | dose: 400.0 mg/kg/injection, schedule: Q04DX002 (ip), vehicle: saline with Tween-80 97 % of control

O=C(O)c1c2c(nc3ccccc13)CCC(C(=O)O)C2 (stereo not drawn)
inactive: dose: 100.0 mg/kg/injection, schedule: Q04DX002 (ip), vehicle: Klucel (hydroxypropylcellulose) (HPC) 95 % of control | dose: 200.0 mg/kg/injection, schedule: Q04DX002 (ip), vehicle: Klucel (hydroxypropylcellulose) (HPC) 95 % of control | dose: 400.0 mg/kg/injection, schedule: Q04DX002 (ip), vehicle: Klucel (hydroxypropylcellulose) (HPC) 103 % of control

CCCCCCCCCCCC[n+]1cccc(C)c1
inactive: dose: 5.0 mg/kg/injection, schedule: Q01DX001 (ip), vehicle: saline 94 % of control

COc1ccc(NC(=O)c2ccc(C(=O)Nc3ccc(OC)cc3)cc2)cc1
inactive: dose: 100.0 mg/kg/injection, schedule: Q04DX003 (ip), vehicle: saline 92 % of control | dose: 200.0 mg/kg/injection, schedule: Q04DX003 (ip), vehicle: saline 97 % of control | dose: 400.0 mg/kg/injection, schedule: Q04DX003 (ip), vehicle: saline 92 % of control

O=C(O)c1ccc(OCCCCOc2ccccc2)c(Cl)c1
inactive: [4] 98 % of control | [6] 98 % of control | [7] 95 % of control

CCc1ccc(NC(=O)c2ccco2)cc1
inactive: [2] 98 % of control | [3] 96 % of control | [4] 98 % of control

C=C1CC(CCCC2CC(=C)C(=O)O2)OC1=O (stereo not drawn)
inactive: [8] 101 % of control | [9] 111 % of control

COC(=O)COc1ccc(Cl)cc1Cl
inactive: [8] 100 % of control | [9] 107 % of control | dose: 400.0 mg/kg/injection, schedule: Q04DX002 (ip), vehicle: saline 100 % of control
